Earlier results, collected in patent US8968755B2, “Topical base and active agent-containing compositions, and methods for improving and treating skin” (priority 2010, dated 2015).

- solubility in water: insoluble in water
SMILES: CCCCCCCCCCCCCCCCCCO [Stearyl alcohol, 1-octadecanol]
